# Laboratory results reported in PMC5899049 (ACS infectious diseases, 2017).
# Where two headings read alike, the source gives them in different places.
# Columns and labels:
# [1] = target: Recombinant P. falciparum IspD (Plasmodium falciparum, UniProt Q8I273); assay: Pf IspD enzymatic assay; format: biochemical; details: for PfIspD % inhibition at 1 μM (1000 nM): 1 μM (1000 nM) compound, 60 nM Pf IspD, NI = no inhibition; for IC50: read-out: PfIspD IC50, measured at 60 nM Pf IspD
# [2] = test system: E. coli, strain BL21(DE3); assay: E. coli growth inhibition assay; format: cell-based, Escherichia coli; details: for % E. coli growth inhibition (18 h): NI = no inhibition
# [3] = test system: MEP pathway intermediates (CDP-ME, MEcPP, IPP) in P. falciparum schizont stage parasites; assay: MEP pathway metabolite profiling by LC-MS/MS; format: cell-based, Plasmodium falciparum; details: 1 μM 1a or 7a, 10 μM FOS; for Decrease in cellular levels of Pf IspD product CDP-ME: schizont stage; for Reduction of the IPP levels: 4 h treatment
# [4] = test system: P. falciparum, Dd2 strain (MRA-150); details: read-out: P. falciparum growth inhibition IC50; Dd2 (MRA-150) strain; data reported previously; cited from earlier work
# [5] = test system: MEP pathway metabolites in parasites starting at ring stage; details: 5 μM FOS for 10 h starting at ring stage; ref 24 (Zhang et al.); cited from earlier work
# [6] = test system: P. falciparum (Dd2 strain); assay: Cytocidal; format: cell-based, Plasmodium falciparum; details: LC50 could not be determined
# [7] = target: T1, Human IspD (hIspD) (Homo sapiens, UniProt A4D126); assay: Human IspD enzymatic assay; format: biochemical; details: 2 μM hIspD, 37 °C, 16 h
# T1 sequence (A4D126 1-451): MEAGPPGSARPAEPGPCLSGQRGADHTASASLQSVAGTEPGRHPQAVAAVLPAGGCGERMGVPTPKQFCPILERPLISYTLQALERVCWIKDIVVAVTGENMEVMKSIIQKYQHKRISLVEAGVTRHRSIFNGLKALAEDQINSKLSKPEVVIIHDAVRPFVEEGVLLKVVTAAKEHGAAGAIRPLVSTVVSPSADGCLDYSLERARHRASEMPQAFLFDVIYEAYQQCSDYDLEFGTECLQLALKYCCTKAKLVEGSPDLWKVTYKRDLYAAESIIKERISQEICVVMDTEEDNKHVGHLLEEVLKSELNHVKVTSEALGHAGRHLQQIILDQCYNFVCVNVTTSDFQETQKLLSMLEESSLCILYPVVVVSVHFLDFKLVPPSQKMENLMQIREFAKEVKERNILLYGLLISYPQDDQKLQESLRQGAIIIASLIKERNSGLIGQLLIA
# [8] = test system: E. coli, strain BL21(DE3); details: 500 μM; NI = no inhibition; data reported previously; cited from earlier work
# [9] = target: P. falciparum IspD; details: read-out: P. falciparum IspD Ki; cited from earlier work
# [10] = test system: Arabidopsis thaliania IspD; details: concentrations up to 10 μM; cited from earlier work
# [11] = test system: Mycobacterium tuberculosis IspD; details: concentrations up to 10 μM; cited from earlier work
# [12] = test system: Escherichia coli IspD (EcIspD); details: concentrations up to 10 μM; cited from earlier work
# [13] = test system: P. falciparum, Dd2 strain (MRA-150); assay: P. falciparum growth inhibition; details: Plasmodium falciparum, DD2, 72 h, read-out: IC50 value at 72 h
structure (smiles),measurement,setting,value
Clc1ccc(C2NCCc3c2[nH]c2ccccc32)c(Cl)c1 (stereo not shown) [11a],PfIspD % inhibition at 1 μM (1000 nM),[1],7% inh. @ 1000
same,% E. coli growth inhibition (18 h),[2]; 250 μM,45 ± 10 @ 250 μM %
CNC(=O)C1Cc2c([nH]c3ccccc23)C(c2ccc(Cl)cc2Br)N1 (stereo not shown) [7k],IC50,[1],31 ± 4 nM
CCNC(=O)C1Cc2c([nH]c3ccccc23)C(c2ccc(Cl)cc2Cl)N1 (stereo not shown) [8a],IC50,[1],~1000 nM
"O=CN(O)CCCP(=O)(O)O [FOS, fosmidomycin, reference compound]",inhibition at 10 µM,"[1]; read-out: PfIspD % inhibition at 10 μM, 10 μM compound, 60 nM Pf IspD",~4%
same,MIC,"[2]; Escherichia coli, 18 h, read-out: E. coli minimum inhibitory concentration (MIC)",11.99 ± 0.02 µM
same,Decrease in cellular levels of Pf IspD product CDP-ME,[3]; 2 h exposure,did not cause significant reduction
same,Decrease in cellular levels of Pf IspD product CDP-ME,[3]; 4 h exposure,did not cause significant reduction
same,Reduction of the IPP levels,[3],> 90%
same,IC50,[4],880 ± 70 nM
same,Levels of CDP-ME,[5],reduced levels
"O=C(O)[C@H]1Cc2c([nH]c3ccccc23)[C@H](c2ccc(Cl)cc2Cl)N1 (single isomer, unassigned; ent-1a) [ent-1a]",% E. coli growth inhibition (18 h),[2]; 250 μM,no effect
same,IC50,[4],> 10000 nM
"O=C(O)[C@H]1Cc2c([nH]c3ccccc23)[C@@H](c2ccc(Cl)cc2Cl)N1 (single isomer, unassigned; ent-5a) [ent-5a]",PfIspD % inhibition at 1 μM (1000 nM),[1],27 ± 5% inh. @ 1 μM
same,% E. coli growth inhibition (18 h),[2]; 250 μM,18 ± 6 @ 250 μM %
same,IC50,[4],3000 ± 200 nM
COc1ccc(C2NC(C(=O)O)Cc3c2[nH]c2ccccc32)cc1OC (stereo not shown) [1x],IC50,[4],> 20000 nM
"O=C(O)[C@@H]1Cc2c([nH]c3ccccc23)[C@@H](c2ccc(Cl)cc2Cl)N1 [1a, (1R,3S)-MMV008138]",Parasite growth at 72 h after wash-out,[6]; 6 h incubation,grow similarly to untreated controls
same,Parasite growth at 72 h after wash-out,[6]; 12 h incubation,grow similarly to untreated controls
same,Decrease in cellular levels of Pf IspD product CDP-ME,[3]; 2 h exposure,67 ± 2%
same,Decrease in cellular levels of Pf IspD product CDP-ME,[3]; 4 h exposure,84 ± 8%
same,Reduction of the IPP levels,[3],> 90%
same,Human IspD CDP-ribitol formation,[7]; 20 μM 1a,not inhibited
same,Human IspD CDP-ribitol formation,[7]; 200 μM 1a,not inhibited
same,IC50,[4],250 ± 70 nM
same,% E. coli growth inhibition (18 h),[8],no effect
same,Ki,[9],7 to 13 nM
same,Inhibition of Arabidopsis thaliania IspD,[10],did not inhibit
same,Inhibition of Mycobacterium tuberculosis IspD,[11],did not inhibit
same,Inhibition of Escherichia coli IspD,[12],did not inhibit
same,IC50,[13],350 ± 30 nM
CNC(=O)C1Cc2c([nH]c3ccccc23)C(c2ccc(Br)cc2Cl)N1 (stereo not shown) [7j],IC50,[1],21 ± 6 nM
O=C(O)[C@@H]1Cc2c([nH]c3ccccc23)[C@H](c2ccc(Cl)cc2Cl)N1 [5a],% E. coli growth inhibition (18 h),[2]; 125 μM,no effect
same,IC50,[4],> 10000 nM
